Assay [1] concerns ds26 (labelled) (DNA, duplex) CAATCGGATCGAATTCGATCCGATTG
The assay can be described thus: FRET melting. The following applies: 100 mM KCl; 10 mM LiCac, pH 7.3; 0.2 μM DNA, 2 μM compound (1:10).

Assay [2] deals with Bcl2 (DNA, G4) GGGCGCGGGAGGAATTGGGCGGG
Put plainly: fluorimetric titration (ligand emission). The following applies: 100 mM KCl; 10 mM Tris, pH 7.4; 1:1 binding model.

Assay [3] relates to Kit1 (DNA, G4) AGGGAGGGCGCTGGGAGGAGGG
Put plainly: fluorimetric titration (ligand emission). To be noted: 100 mM KCl; 10 mM Tris, pH 7.4; 1:1 binding model.

Assay [4] relates to HTelo (HTelo22) (DNA, G4) AGGGTTAGGGTTAGGGTTAGGG
The assay can be described thus: thiazole orange displacement (FID). To be noted: 100 mM KCl; 10 mM LiCaco, pH 7.2; 1 μM DNA, 2 μM thiazole orange displaced.

In assay [5] the test system is Bcl2 (labelled) (DNA, G4) GGGCGCGGGAGGAATTGGGCGGG
The assay can be described thus: FRET melting. The following applies: 100 mM KCl; 10 mM LiCac, pH 7.3; 0.2 μM DNA, 2 μM compound (1:10).

The subject of assay [6] is cMyc (DNA, G4) TGAGGGTGGGTAGGGTGGGTAA
The assay can be described thus: thiazole orange displacement (FID). To be noted: 100 mM KCl; 10 mM LiCaco, pH 7.2; 1 μM DNA, 2 μM thiazole orange displaced.

The test system of assay [7] is ds26 (DNA, duplex) CAATCGGATCGAATTCGATCCGATTG
The assay can be described thus: fluorimetric titration (ligand emission). To be noted: 100 mM KCl; 10 mM Tris, pH 7.4; 1:1 binding model.

For assay [8], the system named is Kit2 (labelled) (DNA, G4) CGGGCGGGCGCGAGGGAGGGG
Put plainly: FRET melting. The following applies: 100 mM KCl; 10 mM LiCac, pH 7.3; 0.2 μM DNA, 2 μM compound (1:10).

Assay [9] has as its system Kit1 (DNA, G4) AGGGAGGGCGCTGGGAGGAGGG
Put plainly: thiazole orange displacement (FID). The following applies: 100 mM KCl; 10 mM LiCaco, pH 7.2; 1 μM DNA, 2 μM thiazole orange displaced.

The subject of assay [10] is HTelo (F21T-K / F21T-Na) (DNA, G4) GGGTTAGGGTTAGGGTTAGGG
Put plainly: FRET melting. To be noted: 10 mM LiCac, pH 7.3, 0.2 μM DNA, 2 μM compound (1:10).

For assay [11], the system named is HTelo (HTelo22) (DNA, G4) AGGGTTAGGGTTAGGGTTAGGG
The assay can be described thus: fluorimetric titration (ligand emission). The following applies: 100 mM KCl; 10 mM Tris, pH 7.4; 1:1 binding model.

Assay [12] concerns Kit1 (labelled) (DNA, G4) AGGGAGGGCGCTGGGAGGAGGG
Put plainly: FRET melting. To be noted: 100 mM KCl; 10 mM LiCac, pH 7.3; 0.2 μM DNA, 2 μM compound (1:10).

In assay [13] the test system is 26TTA (labelled) (DNA, G4) TTAGGGTTAGGGTTAGGGTTAGGGTT
The assay can be described thus: FRET melting. To be noted: 100 mM KCl; 10 mM LiCac, pH 7.3; 0.2 μM DNA, 2 μM compound (1:10).

The subject of assay [14] is cMyc (DNA, G4) TGAGGGTGGGTAGGGTGGGTAA
The assay can be described thus: fluorimetric titration (ligand emission). The following applies: 100 mM KCl; 10 mM Tris, pH 7.4; 1:1 binding model.

The subject of assay [15] is 24TTG (labelled) (DNA, G4) TTGGGTTAGGGTTAGGGTTAGGGA
The assay can be described thus: FRET melting. The following applies: 100 mM KCl; 10 mM LiCac, pH 7.3; 0.2 μM DNA, 2 μM compound (1:10).

Assay [16] has as its system TBA (labelled) (DNA, G4) GGTTGGTGTGGTTGG
Put plainly: FRET melting. To be noted: 100 mM KCl; 10 mM LiCac, pH 7.3; 0.2 μM DNA, 1 μM compound (1:5).

For assay [17], the system named is F21T-RNA (RNA, G4) GGGUUAGGGUUAGGGUUAGGG
The assay can be described thus: FRET melting. The following applies: 100 mM KCl; 10 mM LiCac, pH 7.3; 0.2 μM DNA, 2 μM compound (1:10).

The subject of assay [18] is ds26 (DNA, duplex) CAATCGGATCGAATTCGATCCGATTG
Put plainly: thiazole orange displacement (FID). To be noted: 100 mM KCl; 10 mM LiCaco, pH 7.2; 1 μM DNA, 3 μM thiazole orange displaced.

On to `C[N+](C)(C)CCCOc1ccc(N(c2ccc(OCCC[N+](C)(C)C)cc2)c2ccc(-c3ccc4c(c3)C3(c5ccccc5-c5ccccc53)c3cc(-c5ccc(N(c6ccc(OCCC[N+](C)(C)C)cc6)c6ccc(OCCC[N+](C)(C)C)cc6)cc5)ccc3-4)cc2)cc1`, for which the binding result in assay [1] is recorded as “no”. Further, the Ka in assay [2] is on record as 5.4(0.5)x10^5 M^-1; in [3], 4.0(0.4)x10^5 M^-1; in assay [7], 3.5(0.5)x10^5 M^-1; in [11] it was > 10^7 M^-1; in assay [14], 4.5(0.8)x10^5 M^-1. Besides, the DC50 in assay [4] is greater than 5 µM; in assay [6], 2.84 µM; in [9] it was 3.00 µM; in [18], greater than 5 µM. Further, the shift in melting temperature (ΔTm) (usually the shift of the melting midpoint relative to a reference) in assay [5] was 30.5 °C; in assay [8], 27.9 °C; in [10] (100 mM KCl) it was greater than 35 °C; in [10] (100 mM NaCl), 24.8 °C; in assay [12] it was greater than 35 °C; in [13] it was less than 12 °C. Besides, the results for the shift in melting temperature (ΔTm) in assay [15], in assay [16] and in assay [17] were less than 12 °C, 19.4 °C and greater than 26.5 °C, respectively.

Take `O=S(=O)(O)CCCCOc1ccc(N(c2ccc(OCCCCS(=O)(=O)O)cc2)c2ccc(-c3ccc4c(c3)C3(c5ccccc5-c5ccccc53)c3cc(-c5ccc(N(c6ccc(OCCCCS(=O)(=O)O)cc6)c6ccc(OCCCCS(=O)(=O)O)cc6)cc5)ccc3-4)cc2)cc1`: the Ka is reported as 5.5(0.3)x10^4 M^-1 in assay [2]; < 10^3 M^-1 in assay [3]; < 10^3 M^-1 in [7]; 7.2(2)x10^4 M^-1 in assay [11]; 5.6(0.1)x10^4 M^-1 in assay [14]. Moreover, the DC50 in assay [4] was greater than 5 µM; in assay [6], greater than 5 µM; in assay [9], greater than 5 µM; in assay [18], 3.52 µM.

The values are drawn from publication PMC10107164 (2022).
